Results as given in PubChem BioAssay AID1918946 (Molecular Pharmacology Branch, DTP, NCI, 2023).

Tested on: 885512-296-R-J2-PDC complex spheroid viability
Assay: Anticancer human tumor 885512-296-R-J2-PDC patient-derived breast carcinoma cell line growth inhibition
Conditions: for IC50: curve of first compound; for viability, T/C: stronger effect = lower value
How it was run: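 Complex spheroids of tumor cells with HUVEC and human MSCs, exposed to iadademstat combined with other agents. Each agent tested in half-log steps from near clinical Cmax (else 10 microM top), DMSO ≤0.25%.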

[1] = second compound 0.1 µM, first compound 0.00316 µM
[2] = second compound 0.1 µM, first compound 0.01 µM
[3] = second compound 0.1 µM, first compound 0.0316 µM
[4] = second compound 0.1 µM, first compound 0.1 µM
[5] = second compound 0.316 µM, first compound 0.00316 µM
[6] = second compound 0.316 µM, first compound 0.01 µM
[7] = second compound 0.316 µM, first compound 0.0316 µM
[8] = second compound 0.316 µM, first compound 0.1 µM
[9] = second compound 1 µM, first compound 0.00316 µM
[10] = second compound 1 µM, first compound 0.01 µM
[11] = second compound 1 µM, first compound 0.0316 µM
[12] = second compound 1 µM, first compound 0.1 µM
[13] = second compound 3.16 µM, first compound 0.00316 µM
[14] = second compound 3.16 µM, first compound 0.01 µM
[15] = second compound 3.16 µM, first compound 0.0316 µM
[16] = second compound 3.16 µM, first compound 0.1 µM
[17] = second compound 10 µM, first compound 0.00316 µM
[18] = second compound 10 µM, first compound 0.01 µM
[19] = second compound 10 µM, first compound 0.0316 µM
[20] = second compound 10 µM, first compound 0.1 µM
[21] = second compound 0.1 µM, first compound 0.00949 µM
[22] = second compound 0.1 µM, first compound 0.03 µM
[23] = second compound 0.1 µM, first compound 0.0949 µM
[24] = second compound 0.1 µM, first compound 0.3 µM
[25] = second compound 0.1 µM, first compound 0.949 µM
[26] = second compound 0.1 µM, first compound 3 µM
[27] = second compound 0.316 µM, first compound 0.00949 µM
[28] = second compound 0.316 µM, first compound 0.03 µM
[29] = second compound 0.316 µM, first compound 0.0949 µM
[30] = second compound 0.316 µM, first compound 0.3 µM
[31] = second compound 0.316 µM, first compound 0.949 µM
[32] = second compound 0.316 µM, first compound 3 µM
[33] = second compound 1 µM, first compound 0.00949 µM
[34] = second compound 1 µM, first compound 0.03 µM
[35] = second compound 1 µM, first compound 0.0949 µM
[36] = second compound 1 µM, first compound 0.3 µM
[37] = second compound 1 µM, first compound 0.949 µM
[38] = second compound 1 µM, first compound 3 µM
[39] = second compound 3.16 µM, first compound 0.00949 µM
[40] = second compound 3.16 µM, first compound 0.03 µM
[41] = second compound 3.16 µM, first compound 0.0949 µM
[42] = second compound 3.16 µM, first compound 0.3 µM
[43] = second compound 3.16 µM, first compound 0.949 µM
[44] = second compound 3.16 µM, first compound 3 µM
[45] = second compound 10 µM, first compound 0.00949 µM
[46] = second compound 10 µM, first compound 0.03 µM
[47] = second compound 10 µM, first compound 0.0949 µM
[48] = second compound 10 µM, first compound 0.3 µM
[49] = second compound 10 µM, first compound 0.949 µM
[50] = second compound 10 µM, first compound 3 µM
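Note: spheroids exposed to agents for 7 days before viability read.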

## COc1cc(Nc2ncc3c(n2)-c2ccc(Cl)cc2C(c2c(F)cccc2OC)=NC3)ccc1C(=O)O + NC1CCC(NC2CC2c2ccccc2)CC1
Second compound 0.1 µM
  IC50: 8.96 nM
Second compound 0.316 µM
  IC50: 7.35 nM
Second compound 1 µM
  IC50: 7.37 nM
Second compound 3.16 µM
  IC50: 9.53 nM
Second compound 10 µM
  IC50: 5.12 nM
[1]
  viability, T/C: 78.8%
[2]
  viability, T/C: 42.8%
[3]
  viability, T/C: 33.2%
[4]
  viability, T/C: 24%
Second compound 0.1 µM, first compound 0.316 µM
  viability, T/C: 12.3%
Second compound 0.1 µM, first compound 1 µM
  viability, T/C: 13.2%
[5]
  viability, T/C: 90.6%
[6]
  viability, T/C: 31.3%
[7]
  viability, T/C: 34.2%
[8]
  viability, T/C: 39.1%
Second compound 0.316 µM, first compound 0.316 µM
  viability, T/C: 14.5%
Second compound 0.316 µM, first compound 1 µM
  viability, T/C: 11.5%
[9]
  viability, T/C: 90.9%
[10]
  viability, T/C: 29.4%
[11]
  viability, T/C: 37.3%
[12]
  viability, T/C: 22.1%
Second compound 1 µM, first compound 0.316 µM
  viability, T/C: 17.5%
Second compound 1 µM, first compound 1 µM
  viability, T/C: 13.2%
[13]
  viability, T/C: 87.4%
[14]
  viability, T/C: 42.1%
[15]
  viability, T/C: 33.7%
[16]
  viability, T/C: 38.1%
Second compound 3.16 µM, first compound 0.316 µM
  viability, T/C: 14.6%
Second compound 3.16 µM, first compound 1 µM
  viability, T/C: 16.6%
[17]
  viability, T/C: 70.5%
[18]
  viability, T/C: 21.4%
[19]
  viability, T/C: 29.7%
[20]
  viability, T/C: 22.7%
Second compound 10 µM, first compound 0.316 µM
  viability, T/C: 17.1%
Second compound 10 µM, first compound 1 µM
  viability, T/C: 15.3%

## Cn1ncnc1C1c2n[nH]c(=O)c3cc(F)cc(c23)NC1c1ccc(F)cc1 (stereo not given) + NC1CCC(NC2CC2c2ccccc2)CC1
Second compound 0.1 µM
  IC50: 16 nM
Second compound 0.316 µM
  IC50: 25 nM
Second compound 1 µM
  IC50: 27.6 nM
Second compound 3.16 µM
  IC50: 27.3 nM
Second compound 10 µM
  IC50: 14.2 nM
Second compound 0.1 µM, first compound 0.000316 µM
  viability, T/C: 140%
Second compound 0.1 µM, first compound 0.001 µM
  viability, T/C: 105%
[1]
  viability, T/C: 77.6%
[2]
  viability, T/C: 67.2%
[3]
  viability, T/C: 37.7%
[4]
  viability, T/C: 10.2%
Second compound 0.316 µM, first compound 0.000316 µM
  viability, T/C: 122%
Second compound 0.316 µM, first compound 0.001 µM
  viability, T/C: 113%
[5]
  viability, T/C: 81.6%
[6]
  viability, T/C: 79%
[7]
  viability, T/C: 44%
[8]
  viability, T/C: 13.3%
Second compound 1 µM, first compound 0.000316 µM
  viability, T/C: 108%
Second compound 1 µM, first compound 0.001 µM
  viability, T/C: 105%
[9]
  viability, T/C: 89.6%
[10]
  viability, T/C: 76.7%
[11]
  viability, T/C: 44.6%
[12]
  viability, T/C: 28.5%
Second compound 3.16 µM, first compound 0.000316 µM
  viability, T/C: 106%
Second compound 3.16 µM, first compound 0.001 µM
  viability, T/C: 104%
[13]
  viability, T/C: 86.1%
[14]
  viability, T/C: 75.2%
[15]
  viability, T/C: 44.5%
[16]
  viability, T/C: 28.6%
Second compound 10 µM, first compound 0.000316 µM
  viability, T/C: 92%
Second compound 10 µM, first compound 0.001 µM
  viability, T/C: 85%
[17]
  viability, T/C: 72%
[18]
  viability, T/C: 56.8%
[19]
  viability, T/C: 36%
[20]
  viability, T/C: 18.6%

## NS(=O)(=O)OCC1CC(n2ccc3c(NC4CCc5ccccc54)ncnc32)CC1O (stereo not given) + NC1CCC(NC2CC2c2ccccc2)CC1
Second compound 0.1 µM
  IC50: < 9.49 nM
Second compound 0.316 µM
  IC50: < 9.49 nM
Second compound 1 µM
  IC50: < 9.49 nM
Second compound 3.16 µM
  IC50: < 9.49 nM
Second compound 10 µM
  IC50: < 9.49 nM
[21]
  viability, T/C: 16.7%
[22]
  viability, T/C: 7.98%
[23]
  viability, T/C: 5.83%
[24]
  viability, T/C: 2.1%
[25]
  viability, T/C: 8.58%
[26]
  viability, T/C: 9.25%
[27]
  viability, T/C: 12.9%
[28]
  viability, T/C: 8.7%
[29]
  viability, T/C: 7.27%
[30]
  viability, T/C: 5.01%
[31]
  viability, T/C: 6.94%
[32]
  viability, T/C: 6.92%
[33]
  viability, T/C: 16.3%
[34]
  viability, T/C: 8.77%
[35]
  viability, T/C: 4.53%
[36]
  viability, T/C: 4.31%
[37]
  viability, T/C: 1.23%
[38]
  viability, T/C: 6.71%
[39]
  viability, T/C: 14.2%
[40]
  viability, T/C: 8.91%
[41]
  viability, T/C: 3.64%
[42]
  viability, T/C: 1.52%
[43]
  viability, T/C: 4.11%
[44]
  viability, T/C: 3.57%
[45]
  viability, T/C: 10.2%
[46]
  viability, T/C: 5.83%
[47]
  viability, T/C: 2.78%
[48]
  viability, T/C: 1.64%
[49]
  viability, T/C: 1.08%
[50]
  viability, T/C: 0.82%

## O=C(C=Cc1cccc(S(=O)(=O)Nc2ccccc2)c1)NO + NC1CCC(NC2CC2c2ccccc2)CC1
Second compound 0.1 µM
  IC50: 74.6 nM
Second compound 0.316 µM
  IC50: 84.5 nM
Second compound 1 µM
  IC50: 84.7 nM
Second compound 3.16 µM
  IC50: 70.7 nM
Second compound 10 µM
  IC50: 50 nM
[21]
  viability, T/C: 104%
[22]
  viability, T/C: 80.2%
[23]
  viability, T/C: 42.8%
[24]
  viability, T/C: 19.8%
[25]
  viability, T/C: 13.6%
[26]
  viability, T/C: 17.1%
[27]
  viability, T/C: 112%
[28]
  viability, T/C: 87.6%
[29]
  viability, T/C: 45.6%
[30]
  viability, T/C: 22.4%
[31]
  viability, T/C: 15.7%
[32]
  viability, T/C: 14.6%
[33]
  viability, T/C: 108%
[34]
  viability, T/C: 84.4%
[35]
  viability, T/C: 47.1%
[36]
  viability, T/C: 19.9%
[37]
  viability, T/C: 12.3%
[38]
  viability, T/C: 11.9%
[39]
  viability, T/C: 90.2%
[40]
  viability, T/C: 69.2%
[41]
  viability, T/C: 43.8%
[42]
  viability, T/C: 24.1%
[43]
  viability, T/C: 12.7%
[44]
  viability, T/C: 12.7%
[45]
  viability, T/C: 90.8%
[46]
  viability, T/C: 65.5%
[47]
  viability, T/C: 30.6%
[48]
  viability, T/C: 17.3%
[49]
  viability, T/C: 8.4%
[50]
  viability, T/C: 16.5%
